Laboratory results published in patent US20230053540A1, “TREATMENT OF LIVER INJURY” (Massachusetts Institute of Technology, priority 2019, published 2023).

System: hepatocytes
Assay: Seq-Well scRNA-Seq of hepatocytes after APAP overdose (signature scores, DEG vs untreated)
Assay type: in vivo, mouse

## CC(=O)Nc1ccc(O)cc1 [APAP, acetaminophen]
APAP vs. UT
  mt-Co2 pct.1: 0.157
  mt-Co3 avg_logFC: −0.9584
  mt-Co3 pct.1: 0.198
  mt-Cytb avg_logFC: −0.8775
  mt-Cytb pct.1: 0.971
  mt-Nd1 avg_logFC: −0.76
  mt-Nd1 pct.1: 0.978
  mt-Nd2 avg_logFC: −0.8325
  mt-Nd2 pct.1: 0.978
  mt-Nd4 avg_logFC: −1.116
  mt-Nd4 pct.1: 0.942
  mt-Nd5 avg_logFC: −0.7797
  mt-Nd5 pct.1: 0.942
  mt-Rnr1 avg_logFC: −0.3538
  mt-Rnr1 pct.1: 1
  mt-Rnr2 avg_logFC: −0.5458
  mt-Rnr2 pct.1: 1
  n-R5-8s1 avg_logFC: 0.6965
  n-R5-8s1 pct.1: 0.268
Cluster A6 (APAP 6 hr)
  1700017B05Rik avg_logFC: 0.2894
  1700017B05Rik pct.1: 0.255
  2010003K11Rik avg_logFC: 0.4872
  2010003K11Rik pct.1: 0.396
  Abca1 avg_logFC: 0.5058
  Abca1 pct.1: 0.604
  Abhd2 avg_logFC: 0.3593
  Abhd2 pct.1: 0.37
  Agpat9 avg_logFC: 0.2968
  Agpat9 pct.1: 0.277
  Alb avg_logFC: 0.4181
  Alb pct.1: 1
  Apoa4 avg_logFC: 0.945
  Apoa4 pct.1: 0.721
  Apob avg_logFC: 0.3564
  Apob pct.1: 0.99
  Apobec1 avg_logFC: 0.2824
  Apobec1 pct.1: 0.239
  App avg_logFC: 0.3291
  App pct.1: 0.315
  Asl avg_logFC: 0.434
  Asl pct.1: 0.826
  B4galt5 avg_logFC: 0.402
  B4galt5 pct.1: 0.332
  Bach1 avg_logFC: 0.6724
  Bach1 pct.1: 0.461
  Bcl2l1 avg_logFC: 0.6863
  Bcl2l1 pct.1: 0.501
  Btg1 avg_logFC: 0.4265
  Btg1 pct.1: 0.356
  Btg2 avg_logFC: 0.5388
  Btg2 pct.1: 0.549
  C1qa avg_logFC: 0.471
  C1qa pct.1: 0.174
  C1qb avg_logFC: 0.5946
  C1qb pct.1: 0.234
  C1qc avg_logFC: 0.5477
  C1qc pct.1: 0.172
  C230081A13Rik avg_logFC: 0.4148
  C230081A13Rik pct.1: 0.279
  Ccl6 avg_logFC: 0.7552
  Ccl6 pct.1: 0.274
  Cd5l avg_logFC: 0.5663
  Cd5l pct.1: 0.21
  Cd14 avg_logFC: 0.3587
  Cd14 pct.1: 0.153
  Cd44 avg_logFC: 0.2929
  Cd44 pct.1: 0.115
  Cd53 avg_logFC: 0.2561
  Cd53 pct.1: 0.103
  Cd74 avg_logFC: 0.4419
  Cd74 pct.1: 0.155
  Cd97 avg_logFC: 0.3303
  Cd97 pct.1: 0.115
  Cd163 avg_logFC: 0.4066
  Cd163 pct.1: 0.146
  Cdkn1a avg_logFC: 1.099
  Cdkn1a pct.1: 0.702
  Cers6 avg_logFC: 0.4774
  Cers6 pct.1: 0.332
  Ces1d avg_logFC: 0.3854
  Ces1d pct.1: 0.859
  Cfp avg_logFC: 0.3251
  Cfp pct.1: 0.143
  Chic2 avg_logFC: 0.39
  Chic2 pct.1: 0.37
  Chka avg_logFC: 1.387
  Chka pct.1: 0.716
  Cidec avg_logFC: 0.3068
  Cidec pct.1: 0.253
  Clec4f avg_logFC: 0.9909
  Clec4f pct.1: 0.339
  Clec4d avg_logFC: 0.2622
  Clec4d pct.1: 0.107
  Cltc avg_logFC: 0.6346
  Cltc pct.1: 0.661
  Creb3l2 avg_logFC: 0.3363
  Creb3l2 pct.1: 0.329
  Ctsl avg_logFC: 0.4384
  Ctsl pct.1: 0.878
  Ctss avg_logFC: 0.7031
  Ctss pct.1: 0.212
  Cxadr avg_logFC: 0.6184
  Cxadr pct.1: 0.606
  Cyp4a14 avg_logFC: 0.5996
  Cyp4a14 pct.1: 0.776
  D10Wsu102e avg_logFC: 0.5134
  D10Wsu102e pct.1: 0.37
  Ddx3x avg_logFC: 0.4893
  Ddx3x pct.1: 0.692
  Ddx5 avg_logFC: 0.4732
  Ddx5 pct.1: 0.685
  Ddx21 avg_logFC: 0.6398
  Dgkd avg_logFC: 0.3462
  Dgkd pct.1: 0.282
  Dkc1 avg_logFC: 0.3232
  Dkc1 pct.1: 0.315
  Dot1l avg_logFC: 0.3695
  Dot1l pct.1: 0.282
  Dusp5 avg_logFC: 0.2889
  Dusp5 pct.1: 0.196
  Dusp6 avg_logFC: 0.4768
  Dusp6 pct.1: 0.482
  Dusp16 avg_logFC: 0.4153
  Dusp16 pct.1: 0.372
  Eaf1 avg_logFC: 0.5066
  Eaf1 pct.1: 0.427
  Efhd2 avg_logFC: 0.5545
  Efhd2 pct.1: 0.468
  Eif1a avg_logFC: 0.6585
  Eif1a pct.1: 0.599
  Eif4g2 avg_logFC: 0.3399
  Eif4g2 pct.1: 0.757
  Epas1 avg_logFC: 0.6264
  Epas1 pct.1: 0.604
  Etf1 pct.1: 0.606
  Etnppl avg_logFC: 0.4038
  Etnppl pct.1: 0.706
  Ets2 avg_logFC: 0.6277
  Ets2 pct.1: 0.415
  Fam107b avg_logFC: 0.4224
  Fam107b pct.1: 0.449
  Fam134b avg_logFC: 0.6202
  Fam134b pct.1: 0.678
  Fcgr3 avg_logFC: 0.294
  Fcgr3 pct.1: 0.107
  Fcna avg_logFC: 0.3469
  Fcna pct.1: 0.124
  Fxyd5 avg_logFC: 0.2697
  Fxyd5 pct.1: 0.138
  Gclc avg_logFC: 1.893
  Gclc pct.1: 0.962
  Gcnt2 avg_logFC: 0.4614
  Gcnt2 pct.1: 0.372
  Gm10800 avg_logFC: 0.5383
  Gm10800 pct.1: 0.115
  Gm15564 avg_logFC: 0.6079
  Gm15564 pct.1: 0.983
  Gm23388 avg_logFC: 0.4216
  Gm23388 pct.1: 0.222
  Gm24187 avg_logFC: 0.3969
  Gm24187 pct.1: 0.2
  Gm24245 avg_logFC: 0.5737
  Gm24245 pct.1: 0.422
  Gm26924 avg_logFC: 0.3029
  Gm26924 pct.1: 1
  Gnl3 avg_logFC: 0.477
  Gnl3 pct.1: 0.501
  Gpt2 avg_logFC: 0.3682
  Gpt2 pct.1: 0.764
  Gsta1 avg_logFC: 0.4204
  Gsta1 pct.1: 0.32
  Gtpbp4 avg_logFC: 0.4579
  Gtpbp4 pct.1: 0.477
  H2-Ab1 avg_logFC: 0.4491
  H2-Ab1 pct.1: 0.158
  H2-Eb1 avg_logFC: 0.3214
  H2-Eb1 pct.1: 0.105
  H3f3b avg_logFC: 0.5088
  H3f3b pct.1: 0.613
  Hba-a1 avg_logFC: 0.716
  Hba-a1 pct.1: 0.165
  Hba-a2 avg_logFC: 0.5328
  Hba-a2 pct.1: 0.131
  Heatr1 avg_logFC: 0.3433
  Heatr1 pct.1: 0.291
  Hic2 avg_logFC: 0.2673
  Hic2 pct.1: 0.15
  Hif1a avg_logFC: 0.4719
  Hif1a pct.1: 0.427
  Hilpda avg_logFC: 0.7698
  Hilpda pct.1: 0.403
  Hmox1 avg_logFC: 1.29
  Hmox1 pct.1: 0.558
  Hnf4a avg_logFC: 0.559
  Hnf4a pct.1: 0.835
  Hnrnpdl avg_logFC: 0.4137
  Hnrnpdl pct.1: 0.406
  Hsd17b13 avg_logFC: 0.5284
  Hsd17b13 pct.1: 0.864
  Ier5 avg_logFC: 0.2797
  Ier5 pct.1: 0.134
  Iigp1 avg_logFC: 0.6118
